Test results reported in ChEMBL document CHEMBL1124085, “Flavins as potential antimalarials. 1. 10-(Halophenyl)-3-methylflavins” (1988).

Experiments:
[1] = tested on: Mus musculus; test: Parenteral antimalarial activity against Plasmodium vinckei in mice (Mus musculus) measured as increase in mean survival time at 10 mg/kg dose; assay type: functional
[2] = tested on: Mus musculus; test: Parenteral antimalarial activity against Plasmodium vinckei in mice (Mus musculus) measured as % cured and increase in MST (days) at 20 mg/kg dose; assay type: functional
[3] = tested on: Mus musculus; test: Parenteral antimalarial activity against Plasmodium vinckei in mice (Mus musculus) measured as increase in mean survival time at 25 mg/kg dose; Toxic; assay type: functional
[4] = tested on: Mus musculus; test: Oral antimalarial activity against Plasmodium vinckei in mice (Mus musculus) measured as increase in mean survival time at 25 mg/kg dose; assay type: functional
[5] = tested on: Mus musculus; test: Oral antimalarial activity against Plasmodium vinckei vinckei in mice (Mus musculus) measured as increase in mean survival time at 75 mg/kg dose; assay type: functional
[6] = tested on: Mus musculus; test: Oral antimalarial activity against Plasmodium vinckei vinckei in mice (Mus musculus) measured as % cured and increase in MST (days) at 100 mg/kg dose; assay type: functional
[7] = tested on: Mus musculus; test: Parenteral antimalarial activity against Plasmodium vinckei in mice (Mus musculus) measured as % cured and increase in MST (days) at 25 mg/kg dose; assay type: functional
[8] = tested on: Mus musculus; test: Oral antimalarial activity against Plasmodium vinckei in mice (Mus musculus) measured as % cured and increase in MST (days) at 75 mg/kg dose; assay type: functional
[9] = tested on: Mus musculus; test: Parenteral antimalarial activity against Plasmodium vinckei in mice (Mus musculus) measured as increase in mean survival time at 15 mg/kg dose; assay type: functional
[10] = tested on: Mus musculus; test: Parenteral antimalarial activity against Plasmodium vinckei in mice (Mus musculus) measured as increase in mean survival time at 20 mg/kg dose; Toxic; assay type: functional
[11] = tested on: Mus musculus; test: Oral antimalarial activity against Plasmodium vinckei in mice (Mus musculus) measured as increase in mean survival time at 100 mg/kg dose; assay type: functional
[12] = tested on: Mus musculus; test: Oral antimalarial activity against Plasmodium vinckei vinckei in mice (Mus musculus) measured as increase in mean survival time at 50 mg/kg dose; assay type: functional
[13] = tested on: Mus musculus; test: Oral antimalarial activity against Plasmodium vinckei vinckei in mice (Mus musculus) measured as % cured and increase in MST (days) at 50 mg/kg dose; assay type: functional
[14] = tested on: Mus musculus; test: Oral antimalarial activity against Plasmodium vinckei in mice (Mus musculus) measured as % cured and increase in MST (days) at 25 mg/kg dose; assay type: functional
[15] = tested on: Mus musculus; test: Oral antimalarial activity against Plasmodium vinckei vinckei in mice (Mus musculus) measured as % cured and increase in MST (days) at 150 mg/kg dose; assay type: functional
[16] = tested on: Mus musculus; test: Parenteral antimalarial activity against Plasmodium vinckei vinckei in mice (Mus musculus) measured as % cured and increase in MST (days) at 15 mg/kg dose; assay type: functional
[17] = tested on: Mus musculus; test: Parenteral antimalarial activity against Plasmodium vinckei in mice (Mus musculus) measured as % cured and increase in MST (days) at 10 mg/kg dose; assay type: functional
[18] = tested on: Mus musculus; test: Oral antimalarial activity against Plasmodium vinckei in mice (Mus musculus) measured as increase in mean survival time at 150 mg/kg dose; assay type: functional
[19] = tested on: Mus musculus; test: Parenteral antimalarial activity against Plasmodium vinckei vinckei in mice (Mus musculus) measured as % cured and increase in MST (days) at 25 mg/kg dose.; assay type: functional
[20] = tested on: Mus musculus; test: Oral antimalarial activity against Plasmodium vinckei in mice (Mus musculus) measured as increase in mean survival time at 25 mg/kg dose.; assay type: functional
[21] = tested on: Mus musculus; test: Parenteral antimalarial activity against Plasmodium vinckei in mice (Mus musculus) measured as % cured and increase in MST (days) at 30 mg/kg dose.
[22] = tested on: Mus musculus; test: Oral antimalarial activity against Plasmodium vinckei in mice (Mus musculus) measured as % cured and increase in MST (days) at 50 mg/kg dose.; assay type: functional
[23] = tested on: Mus musculus; test: Oral antimalarial activity against Plasmodium vinckei in mice (Mus musculus) measured as % cured and increase in MST (days) at 25 mg/kg dose.; assay type: functional
[24] = tested on: Mus musculus; test: Parenteral antimalarial activity against Plasmodium vinckei vinckei in mice (Mus musculus) measured as % cured and increase in MST (days) at 10 mg/kg dose.; assay type: functional
[25] = tested on: Mus musculus; test: Parenteral antimalarial activity against Plasmodium vinckei vinckei in mice (Mus musculus) measured as % cured and increase in MST (days) at 20 mg/kg dose.; assay type: functional
[26] = tested on: Mus musculus; test: Oral antimalarial activity against Plasmodium vinckei vinckei in mice (Mus musculus) measured as % cured and increase in MST (days) at 150 mg/kg dose.; assay type: functional
[27] = tested on: Mus musculus; test: Oral antimalarial activity against Plasmodium vinckei in mice (Mus musculus) measured as % cured and increase in MST (days) at 75 mg/kg dose.; assay type: functional
[28] = tested on: Mus musculus; test: Oral antimalarial activity against Plasmodium vinckei vinckei in mice (Mus musculus) measured as % cured and increase in MST (days) at 100 mg/kg dose.; assay type: functional
[29] = tested on: Mus musculus; test: Parenteral antimalarial activity against Plasmodium vinckei in mice (Mus musculus) measured as % cured and increase in MST (days) at 15 mg/kg dose.; assay type: functional

Cn1c(=O)nc2n(-c3ccccc3Cl)c3ccccc3nc-2c1=O
-0.2 days: MST [10]
0%: Cured [2] | Cured [6] | Cured [7] | Cured [8] | Cured [13] | Cured [14] | Cured [15] | Cured [16] | Cured [17]
-1.4 days: MST [3]
0 days: MST [1] | MST [4] | MST [5] | MST [9] | MST [11] | MST [12] | MST [18]

Cn1c(=O)nc2n(-c3cc(Cl)cc(Cl)c3)c3ccccc3nc-2c1=O
100%: Cured [19] | Cured [21] | Cured [22] | Cured [24] | Cured [25] | Cured [26] | Cured [27] | Cured [28] | Cured [29]
3.5 days: MST [20]
60%: Cured [23]
